Results: US7033582B2 (Teva Pharmaceutical Industries, Ltd., priority 2000, dated 2006)
“Also recorded” adds a separate entry of the source. Where two headings read alike, the source gives them in different places.

Experiments:
[1] = test system: EAE; settings: in vivo; cited from earlier work
[2] = test system: T lymphocyte - U937 co-culture; settings: pretreatment of the PMA/IFNγ-treated U937 cells instead of T lymphocytes
Description: (§1) Cells were left for 69 h at 37° C., then collected, counted and resuspended in fresh AIM-V at density of 500,000 cells per ml. […] Thereafter, 500 μl (250,000 cells) of the suspension was taken for migration assays described below. Alternatively, 100 μl (50,000 cells) of cell suspension was added to each individual well of a 96-well plate already containing microglia or U937 monocytoid cells (see below).
A human promonocytoid cell line, U937, was also employed. Members of this cell line become microglia-like, as assessed by morphology and expression of cell surface molecules, when treated sequentially with 50 ng/ml of a protein kinase C activator, phorbol-12-myristate-13-acetate (PMA) (time 0–48) and 100 U/ml interferon-γ (IFNγ) (from 48–72 h).
Cells were used 1–3 days after the IFNγ treatment. As with microglia, 50,000 T lymphocytes in AIM-V was added to individual wells of a 96-well plate already containing 25,000 PMA/IFNγ-treated U937 cells, and conditioned medium was collected after 24 h of co-cultures.
(§2) Cytokine protein levels in the conditioned medium of microglia-T lymphocyte co-cultures were measured using enzyme-linked immunoabsorbent assay (ELISA) kits bought from BioSource International (Montreal, Canada).

[3] = test system: T-cell responses to MBP; settings: dose-dependent; cited from earlier work
[4] = test system: MMP-9 production by monocytes; settings: after 1 day of treatment
Description: To produce monocyte-enriched cultures, 2×10^5 PBMC were suspended in 100 μl of AIM-V medium and placed into each well of a 96-well plate. One hour after, floating cells were removed to leave behind adherent monocytes. Fresh 100 μl of AIM-V was added per well and cultures were kept at 37° C.
Supernatant was collected, mixed in a 3.1 ratio (v/v) with 4× gel-loading SDS buffer, and used in zymographic assays. Similarly, for monocytes in wells of 96-well plates, conditioned medium was collected, microfuged, and mixed with 4× gel-loading SDS buffer.
Zymography is essentially SDS-PAGE except that gelatin is also added to the gel (77, 82). After proteins were resolved based on molecular weight in SDS-PAGE, the gel was washed in a Triton X-100 buffer in order to remove SDS which thus allows protein renaturation. In a calcium-containing “reaction buffer” (77), gelatinases (MMP-2 and -9) degraded gelatin in their immediate vicinity (other members of MMPs would also be detected if present in high amounts). Following staining in Coommasie blue, which binds all proteins, and destaining , areas containing gelatinases appeared as clear bands against a dark background, since the gelatin in its immediate vicinity has been degraded. The size of the MMP bands was a reflection of the amount of MMP that was produced by cells, and this was documented by NIH image analysis software.

[5] = test system: T lymphocytes; settings: for total number of cells after 72 h: control 24±2
Description: (§3) Heparinized blood was collected from normal volunteers, and subjected to Ficoll-Hypaque (Pharmacia Biotech, Mississauga, Ontario) centrifugation to obtain peripheral blood mononuclear cells (PEMNCs) as described previously (15). After two washes, cells were suspended at a density of 1–2 million/ml in horizontal T-25 flasks (Nunc, Becton Dickinson, Mississauga, Ontario) in the serum free medium, AIM-V (GIBCO/BRL), to which 1 ng/ml of an anti-CD3 antibody (OKT3, compliments of Jack Antel, Montreal, Canada) was added. Three hours after the anti-CD3 addition, the T-25 flasks were stood upright from their horizontal position in order to […] monocytes that had adhered. Floating cells, which were mostly lymphocytes, were left for a period of 72 hours at 37° C. […] Henceforth, given that the majority of cells in the MNC population are T lymphocytes, these will be referred to as T lymphocytes.
as §1

[6] = test system: experimental GVHD; settings: higher doses and/or more frequent administration; mice; cited from earlier work
[7] = test system: CXCR3 and CXCR4 on U937 cells; settings: 25 μg/ml, 1 or 3 days
Source text: Chemokine and chemokine receptor expression are currently recognized to be important mechanisms that regulate the influx of leukocytes into the CNS. Notable is the up-regulation of the chemokine IP-10 and its receptor CXCR3 in the lesions of multiple sclerosis patients (74).

[8] = test system: T lymphocyte - adult human microglia co-culture; settings: added at the time of co-culture instead of pretreatment
Description: as §1
Adult human microglia were isolated from the resected brain tissue of patients undergoing surgical resection to treat intractable epilepsy. […] Cells were used for interactions with T lymphocytes in a manner identical to that described for their fetal counter parts.
as §2

[9] = test system: MMP-9 production by T lymphocytes; assay: MMP-9 production by anti-CD3 activated T lymphocytes (zymography of conditioned medium); assay type: cell-based, human; settings: 25 μg/ml, for 1, 2 or 3 d
Description: as §3, §1

[10] = test system: lymphocytes from relapsing-remitting multiple sclerosis patients; settings: patients on Copolymer 1 compared to untreated multiple sclerosis patients; cited from earlier work
[11] = test system: MMP-9; assay: MMP enzyme activity in gelatin zymography, test agent in wash and reaction buffer; assay type: biochemical, Baby Hamster Kidney (BHK) cells and human T lymphocytes; settings: agent in incubation buffers during zymogram development; MMP-9 from BHK cells or T lymphocytes
Source text: The analysis of cell conditioned medium in zymography is a reflection of the amount of MMPs that was produced by the particular culture. […] An inhibitor of MMP activity prevents gelatin degradation by gelatinases and the resultant size of the band of gelatinases would be smaller as compared to that obtained in the absence of inhibitors.

[12] = test system: MHC class II molecules; settings: irrespective of MHC restriction, dose-dependent; cited from earlier work
[13] = test system: T lymphocytes; assay: Migration assay across fibronectin-coated Boyden chamber; assay type: cell-based, human
Description: as §1
To address the migration capacity of T lymphocytes, 2×10^5 T lymphocytes in 500 μl of 2.5% fetal calf serum (FCS) containing AIM-V were seeded into the top compartment of a Boyden chamber (Collaborative Biomedical Products, Bedford, Md.). This chamber consists of two compartments separated by a polycarbonate membrane filter (9 mm in diameter, with 3 μm pores) precoated on its upper surface with fibronectin. Fibronectin was employed to simulate the basal lamina.
The bottom compartment of the migration chamber contained 10% FCS-supplemented AIM-V; the higher concentration of FCS in the bottom chamber served as a directional gradient (77). After 5 h at 37° C., the content of the lower chamber was collected, and the number of migrated T lymphocytes was counted with the Coulter Counter Z1.

CNC(=O)[C@@H](NC(=O)[C@@H](CC(=O)NO)CC(C)C)C(C)(C)C [Ro31-9790]
incidence and severity of EAE [1]: alleviate

L-glutamic acid polymer with L-alanine, L-lysine and L-tyrosine, acetate (salt) [Copolymer 1]
cytokine production in subsequent T lymphocyte - U937 interactions [2]: did not influence
in vitro T-cell responses to MBP [3]: inhibited
monocyte production of MMP-9 [4]: unaffected
number or size of T lymphocyte aggregates after anti-CD3 treatment (proliferation) [5]: does not decrease
total number of cells after 72 h ([5]; 5 μg/ml): 26±1 ×10^3
total number of cells after 72 h ([5]; 25 μg/ml): 26±2 ×10^3
total number of cells after 72 h ([5]; 50 μg/ml): 22±1 ×10^3
experimental GVHD [6]: prevent
CXCR4 expression on U937 cells [7]: does not affect
reducing effect on cytokine production [8]: does not occur
production of MMP-9 by T lymphocytes compared to controls [9]: did not affect
capacity of lymphocytes to transmigrate across a fibronectin barrier [10]: significantly reduced
inhibition of MMP-9 enzymatic activity (size of gelatinase band in zymogram) [11]: dose-dependently reduced; also recorded: inhibits
binding to antigen presenting cells / MHC class II molecules [12]: binds
migration rate of pre-treated T lymphocytes versus controls ([13]; 10 ng/ml MCP-1 or MCP-3 in bottom chamber as chemotactic signal): did not differ
migration of T lymphocytes across fibronectin barrier compared to controls ([13]; 25 μg/ml pretreatment for 1, 2 or 3 days): did not inhibit; also recorded: did not affect
transmigration of activated T lymphocytes ([13]; 3-day pretreatment, various concentrations 1 to 50 μg/ml): did not affect

C=CC[C@H](C(=O)NO)[C@@H](CC(C)C)C(=O)N[C@@H](Cc1ccccc1)C(=O)NC [BB-1101]
incidence and severity of EAE [1]: alleviate

c1cnc2c(c1)ccc1cccnc12 [phenanthroline]
inhibition of MMP-9 enzymatic activity (size of gelatinase band in zymogram) [11]: inhibit MMP activity

TIMP-1: positive control shown to inhibit MMP activity in the zymography assay
inhibition of MMP-9 enzymatic activity (size of gelatinase band in zymogram) [11]: inhibit MMP activity

CNC(=O)[C@H](Cc1c[nH]c2ccccc12)NC(=O)[C@@H](CC(=O)NO)CC(C)C [GM6001]
incidence and severity of EAE [1]: alleviate
